Where two headings read alike, the source gives them in different places.
Columns and labels:
[1] = 1H NMR relaxometry (relaxivity as a function of pH); assay type: physicochemical; conditions: pH 3, 61 MHz, 25 °C, after dissociation of the complexes
Text: The studies reported by Branco assumed the formation of a protonated [Mn(HL)]^3+ species for the Mn-PYAN complex characterized by protonation constant log KMnLH = 5.19 (KMnLH = [MnHL]/[MnL] × [H^+]).[42] However, our pH-potentiometric data could be fitted very well without considering the formation of protonated species or hydroxo-complexes. In order to confirm that the equilibrium model used to fit the pH-potentiometric data was correct, we measured the relaxivity (r1p) of aqueous solutions of the complexes as a function of pH (Figure 4). Relaxivity measures the ability of a paramagnetic solute to enhance the longitudinal relaxation rate of solvent water molecules, normalized for a 1 mM concentration of the paramagnetic ion.[45] The r1p values measured around neutral pH values (0.83 and 1.40 mM^–1 s^–1 at 61 MHz and 25 °C for Mn-PYAN and Mn-CHXPYAN, respectively) are typical of complexes that lack one or more water molecules in the inner coordination sphere, the observed relaxivity being the result of the outer-sphere contribution.[46] Relaxivity is fairly constant in the pH range of 6–9 but increases below pH ∼ 6 due to complex dissociation, reaching a relaxivity of 6.00 mM^–1 s^–1 at pH 3, 61 MHz, and 25 °C that is characteristic of the [Mn(H2O)6]^2+ complex.[47] The relaxivity profile matches the speciation diagrams calculated using the equilibrium constants obtained by pH potentiometry very well, which provides support for the equilibrium model used to fit the potentiometric data. It is worth noting that complex dissociation takes place at a lower pH for Mn-CHXPYAN than for Mn-PYAN, as expected, considering their pMn values.
The relaxivity values were calculated from the longitudinal relaxation time of H2O protons (T1) measured at 61 MHz on a Stelar relaxometer connected to a Bruker WP80 NMR electromagnet adapted to variable-field measurements (15–80 MHz proton Larmor frequency). […] The longitudinal relaxation time was measured with the “inversion recovery” method (180°–τ–90°) by using 12 different τ values with a typical 90° pulse width of 10.7 μs, 4 scans. […]

[2] = 0.2 M KNO3; cited from earlier work
[3] = pH-potentiometric titrations, stability constants of the Mn(II) complexes; assay type: physicochemical; conditions: 0.15 M NaCl, 25°C
Procedure: The stability constants of the Mn(II) complexes with PYAN and CHXPYAN defined by eq 2 were also determined through pH-potentiometric titrations. [drawing 2] 2
(§1) The protonation constants of PYAN and CHXPYAN and the stability constants of Mn(II) complexes were determined by pH-potentiometric titrations. The metal-to-ligand concentration ratio was 1:1 (the concentration of the ligand was generally 0.002 M). For the pH measurements and titrations, a Metrohm 888 Titrando titration workstation and Metrohm-6.0234.110 combined electrode was used. Equilibrium measurements were carried out at a constant ionic strength (0.15 M NaCl) in 6 mL samples at 25 °C. The solutions were stirred, and N2 was bubbled through them. The titrations were made in the pH range of 1.7–12.0. KH-phthalate (pH = 4.005) and borax (pH = 9.177) buffers were used to calibrate the pH meter. For the calculation of [H^+] from the measured pH values, the method proposed by Irving et al. was used as follows.[59] A 0.01 M HCl solution was titrated with a standardized NaOH solution at 0.15 M NaCl ionic strength. The differences (A) between the measured (pHread) and calculated pH (−log[H^+]) values were used to obtain the equilibrium H^+ concentration from the pH values measured in the titration experiments (A = 0.04). For the equilibrium calculations, the stoichiometric water ionic product (pKw) was also needed to calculate the [OH^–] values under basic conditions. The VNaOH – pHread data pairs of the HCl–NaOH titration obtained in the pH range of 10.5–12.0 were used to calculate the pKw value (pKw = 13.77). The protonation and stability constants were calculated with the PSEQUAD program.[60]

[4] = pH-potentiometric titrations, ligand protonation constants; assay type: physicochemical; conditions: 0.15 M NaCl, 25°C
Procedure: Chelator protonation constants (log Ki^H) defined by eq 1 were determined using pH-potentiometric titrations, which afforded four protonation constants for each chelator attributed to the protonation of the amine N atoms (Table 2, and standard deviations are shown in parentheses). [drawing 1] 1 where i = 1, 2...4. The first two protonation constants adopt nearly identical values for both chelators, while the third and fourth protonation constants are much lower for CHXPYAN than for PYAN, which is consistent with the results obtained by Jackels et al.[25] The high rigidity of CHXPYAN likely forces the protonated amines to be placed at a shorter distance than in PYAN, reducing the values of log K3^H and log K4^H for the cyclohexyl derivative due to electrostatic effects. […] The structurally related 18-membered macrocycle 18-ane-N6 is characterized by a higher basicity compared with PYAN and CHXPYAN, as expected due to the increased number of amine N atoms and its higher flexibility.[43]
as §1

[5] = 0.2 M KNO3; cited from earlier work; remark: listed apart in the source
[6] = Transmetalation (dissociation) kinetics of the Mn(II) complexes with Cu2+; assay type: physicochemical; conditions: 0.15 M NaCl, 25 °C
Procedure: There is a wide consensus among the coordination chemistry community that kinetic inertness is more important for the safe use of metal complexes for imaging applications than thermodynamic stability.[8],[49],[50] Thus, we conducted a detailed investigation of the transmetalation kinetics of the Mn-PYAN and Mn-CHXPYAN complexes, by following their exchange reactions with Cu^2+ in the pH range of 2.5–4.5 (eq 3). [drawing 3] 3
All reactions were carried out in the presence of a large excess of Cu^2+ in order to guarantee the pseudo-first-order kinetic conditions. The transmetalation of Mn-PYAN in the pH range ∼2.0–4.5 is very fast, and thus the rates of the reactions were measured using the stopped-flow technique. Conversely, the exchange reactions of the Mn-CHXPYAN complex are slow and could be studied by using conventional methods. The transmetalation reactions of Mn-PYAN and Mn-CHXPYAN were monitored by following the formation of the corresponding Cu(II) complexes at 295 nm.
The kd values increase upon increase in [H^+] and are independent of the concentration of Cu^2+ as it was found for Mn-PCTA, Mn-PC3AM, and Mn-bispidine complexes.[49],[51] […] The increase in the kd values with increasing H^+ concentration can be interpreted in terms of the extremely slow spontaneous (k0, eq 4) and the proton-assisted (k*[Mn(HL), eq 6) dissociation of Mn(II) complexes. The saturation behavior of the plots of kd versus [H^+] (Figure 5) is characteristic for the equilibrium formation and the accumulation of the *[Mn(HL)] intermediate characterized by the *KH protonation constant (eq 5). The analysis of the rate constants obtained for Mn-CHXPYAN indicates a second-order dependence of kd on [H^+], which can be explained by the proton-assisted dissociation of the *[Mn(HL)] intermediate (k^H*[Mn(HL)], eq 7). [drawing 4] 4 [drawing 5] 5 [drawing 6] 6 [drawing 7] 7
In the presence of excess of the exchanging ion, the transmetalation can be treated as a pseudo-first-order process, and the rate of reactions can be expressed with eq 8, where kd is a pseudo-first-order rate constant and [MnL]t is the total concentration of the complex. [drawing 8] 8
Through consideration of all the possible pathways, the rate of the transmetalation of Mn-PYAN and Mn-CHXPYAN with Cu^2+ can be expressed by eq 9 [drawing 9] 9 Considering the total concentration of the Mn(II) complex ([MnL]t = [MnL] + [*Mn(HL)], as well as the equation defining the protonation constant for the formation of the *[Mn(HL)] intermediate (eq 5) and eq 8, the pseudo-first-order rate constant can be expressed as follows [drawing 10] 10 where k1 = k*[Mn(HL)] × *KH and k2 = k^H*[Mn(HL)] × *KH. The rate and protonation constants characterizing the transmetalation of Mn-PYAN and Mn-CHXPYAN with Cu^2+ have been calculated by fitting the kd values presented in Figure 5 to eq 10 and the values obtained are compared with the corresponding values of Mn-DOTA, Mn-DO3A, Mn-PCTA, Mn-PC3AM^H, and Mn-bispidine in Table 3.
Rates of the metal exchange reactions of Mn-PYAN and Mn-CHXPYAN with Cu^2+ were measured by spectrophotometry by following the formation of the related Cu(II) complexes at 295 nm with an Applied Photophysics DX-17MV stopped-flow instrument and PerkinElmer Lambda 365 UV–vis spectrophotometer using 1.0 cm cells, respectively. The concentration of Mn-PYAN and Mn-CHXPYAN was 1.0 × 10^–4 M, whereas the concentration of Cu^2+ was 10 and 20 times higher in order to guarantee pseudo-first-order conditions. The temperature was maintained at 25 °C and the ionic strength of the solutions was kept constant with 0.15 M NaCl. The exchange rates were studied in the pH range of ca. 2.0–4.5. To keep the pH values constant, monochloroacetic acid (pH range 2.0–3.3), 1,4-dimethylpiperazine (pH range 3.3–4.1), and N-methylpiperazine (pH range 4.1–4.5) buffers were used (0.01 M). […]

relaxivity [1] | SMILES | log KMnL [2] | pMn ([3]; pMn = −log[Mn]free when [Mn^2+] = [L] = 10 μM at pH = 7.4) | log KMnL ([3]; stability constant of the Mn(II) complex) | log K1^H [4] | log K2^H [4] | log K3^H [4] | log K4^H [4] | log K1^H [5] | log K2^H [5] | log K3^H [5] | log K4^H [5] | k1 ([6]; Mn(II) complex of the chelator) | k2 ([6]; Mn(II) complex of the chelator) | kd at pH = 7.4 ([6]; Mn(II) complex of the chelator) | log*KH ([6]; protonation constant of the *[Mn(HL)] intermediate)
6.00 mM^–1 s^–1 | O.O.O.O.O.O.[Mn+2] [[Mn(H2O)6]^2+] | – | – | – | – | – | – | – | – | – | – | – | – | – | – | –
– | c1cc2nc(c1)CN[C@@H]1CCCC[C@H]1NCc1cccc(n1)CN[C@@H]1CCCC[C@H]1NC2 [CHXPYAN, (4^1R,4^2R,10^1R,10^2R)-3,5,9,11-tetraaza-1,7(2,6)-dipyridina-4,10(1,2)-dicyclohexanacyclododecaphane] | ~13 | 7.41 | 12.51(3) | 9.16(2) | 8.27(2) | 4.55(2) | 2.54(3) | 9.25 | 8.57 | 4.75 | 4.03 | 0.23 ± 0.03 M^–1 s^–1 | (6.4 ± 0.8) × 10^3 M^–2 s^–1 | 9.0 × 10^–9 s^–1 | 3.33 (5)

From publication PMC11247486, “Improving the In Vivo Stability of [^52Mn]Mn(II) Complexes with 18-Membered Macrocyclic Chelators for PET Imaging” (Journal of Medicinal Chemistry, 2024)
